Consider 7 compounds from US10183055B2, “Ang-(1-7) derivative oligopeptides for the treatment of pain and other indications” (ARIZONA BOARD OF REGENTS ON BEHALF OF THE UNIVERSITY OF …, priority 2014, dated 2019).

Like-named read-outs stand apart in the source and are kept apart here. Residues, ends and D or L forms follow the SMILES beside them. *: point of attachment. X2 = OC[C@H]1O[C@@H](O[C@H]2[C@H](O)[C@@H](O)[C@H](*)O[C@@H]2CO)[C@H](O)[C@@H](O)[C@H]1O; X1 = OC[C@H]1OC(*)[C@H](O)[C@@H](O)[C@@H]1O

In data set [1] the test system is human umbilical vascular endothelial cells (HUVEC). In words: NO production assay (DAF-FM fluorescence, microplate reader). The settings on record: 5 minutes exposure. It counts as cell-based. The method, then:
NO production assay. As a screen for mechanisms of action of oligopeptides of the invention, the ability to increase NO production of three oligopeptides of the invention (PN-A3, PN-A4 and PN-A5) were characterized and compared to native Ang-(1-7). Human umbilical vascular endothelial cells (HUVEC) culture plates received fluorescence reaction buffer (0.2 M phosphate buffer, pH 7, 1 mM EDTA, 0.1% glucose) containing diaminofluorescein-FM diacetate (DAF-FM, 1 μM) to measure real-time NO production. Time-resolved (10 minutes) fluorescent intensity was detected using a BioTek Synergy 2 microplate reader with excitation at 485 nm and emission at 535 nm. DAF-FM is a sensitive flourometric derivative for the selective detection of NO in live cells.
Values were normalized to control fluorescence.

Data set [2] shares this test system. In words: xCELLigence RTCA cell activation (cell impedance). It counts as cell-based. The source says:
Cell culture. To isolate primary hippocampal CA1 neuronal cells, whole brain was removed from neonatal rat pups (1-2 day old) and the cortices dissected away. The hippocampus was isolated and the CA1 field was excised and placed in buffer. After gentle disruption in digestion buffer, the cells were counted, placed in culture media, and plated in a 96-well format coated with poly-d-lysine. At the time of plating, cells were approximately at 50% density and were allowed to culture to 70-80% density before starting the assay. Commercially available HUVEC (Life Technologies/Thermo Fisher) was thawed and plated (5000-10,000 cells/well) in a 96-well format coated with gelatin. HUVEC cells were allowed to culture overnight before starting the assay.
Cell Activation: The xCELLigence system Real-Time Cell Analyzer (RTCA), developed by Roche Applied Science, uses microelectronic biosensor technology to do dynamic, real-time, label-free, and non-invasive analysis of cellular events including G-protein receptor activation of cells. The RTCA analysis was utilized to measure the potency and relative ability of oligopeptides of the invention and native Ang-(1-7) to activate human umbilical vascular endothelial cells (HUVEC) in culture. Following uniform cellular adherence based on a linear increase in cell impedance (CI), HUVECs were treated with Ang-(1-7) and oligopeptides of the invention. Each trace of the CI over time in FIG. 1 represents the average of 4 wells normalized to CI at the time of compound addition.

Data set [3] has as its system BALB/cAnNHsd mice with intramedullary 66.1 cells (CIBP). In words: Established CIBP, acute behavioral testing (flinching/guarding). It counts as in vivo. The settings on record: for pain behaviors, AT1 or AT2 antagonist administered alone: 0.4 mg/kg i.p. On the procedure: Animals: Female BALB/cAnNHsd mice (Harlan, Ind., USA) between 15 and 20 g were used in this study. Mice were housed in a climate control room on a 12-hour light/dark cycle and allowed food and water ad libitum. Animals were monitored on days 0, 7, 10, and 14 of the study for clinical signs of rapid weight loss and signs of distress.
All intraperitoneal (i.p.) injections were made at a volume of 10 mL/kg.
Arthrotomy—Intramedullary Implantation of 66.1 Cells: To induce CIBP, an arthrotomy was performed. Briefly, animals were anesthetized with 80 mg/kg ketamine-12 mg/kg xylazine (in a 10 mL/kg volume). The surgical area was shaved and cleaned with 70% ethanol and betadine. The condyles of the right femur were exposed and a burr-hole (0.66 mm) was drilled to create a space for the 66.1 cell inoculation. A 5 μl volume of 66.1 cells (8,000 cells per 1 μl) in MEM (or 5 μl MEM without cells in sham animals) was injected into the intramedullary space of the mouse femora. Proper placement of the injector was confirmed by radiograph (Faxitron X-ray imaging). Holes were sealed with bone cement and the patella reset. Muscle and skin were closed in separate layers with 5-0 vicryl suture and wound autoclips, respectively. Animals were given 8 mg/kg (10 mL/kg volume) gentamicin to prevent infection. Staples were removed 7 days post-surgery.
Acute Behavioral Testing: Fourteen days post-surgery, baseline behaviors of spontaneous flinching/guarding were recorded. Flinching was characterized by the lifting and rapid flexing of the hind paw ipsilateral to femoral inoculation when not associated with walking or other movement. Guarding was characterized by the lifting the inoculated hind limb into a fully retracted position under the torso. The total number of flinches and the time spent guarding 2 min duration was recorded. […] Antagonists were administered 30 minutes prior to Ang-(1-7). Following administration, animals were tested at over a three-hour time course until their pain behaviors returned to baseline

Data set [4] concerns naïve mice. In words: Rotarod performance test. The format is in vivo. The settings on record: spinal 0.3 pmol/5 μL or systemic 0.058 and 10 μg/kg. On the procedure:
Rotarod: A rotarod performance test was used to determine the motor and/or sedative effects of Ang-(1-7) (Rotamex 4/8, Columbus Instruments, Columbus, Ohio, USA). Three days prior to testing, naïve mice were subjected to 5 trials in which they were able to acclimate to the rotating rod (10 revolutions/min). On the day of testing, animals were allowed one trial and then baselined. The amount of time the animal remained on the rod was recorded, with a cutoff time of 120 seconds to prevent exhaustion. Animals were dosed (i.p.) as previously described and reevaluated 15, 30, 60, and 120 minutes post-administration.
To exclude the possibility that Ang-(1-7) administration reduced mobility in order to increase tail withdraw latency, rotarod testing was performed. Naïve animals were trained to walk on a rotating rod for 2 min. After training, animals were injected with Ang-(1-7) by either spinal (0.3 pmol/5 μL) or systemic routes (0.058 and 10 μg/kg).

For data set [5] the following is noted: mouse, serum.
Procedure: (§1) Aliquots were withdrawn at the indicated time intervals and the peptide concentration was determined using HPLC-MS and expressed as a percentage of the initial concentration.
Data set [6] in a line: In vivo serum and CSF concentration after subcutaneous injection.
Procedure: The peptides (10 mg/kg) or vehicle control were individually subcutaneously injected into naïve mice. Serum concentrations were determined every 10 minutes by HPLC-MS using a 20-30 μl blood sample. […] CSF samples were simultaneously withdrawn from the same animals via a microdialysis probe and assayed for the peptide concentration and corrected for basal CSF levels.
The nature of data set [7]: In Vitro Serum Half-Life Assay. As to conditions: mouse.
Procedure: as §1

On to “PN-A4: Asp Arg Val Tyr Ile His Pro Ser** (lactosylated), carboxyl terminal NH2 (SEQ ID NO: 9) (DRVYIHPS; lactosylated; C-terminal amide; MOD_RES (8)..(8) Lactosylated-Ser; C-term -NH2)”, for which the “NO production versus control levels (relative peak fluorescence intensity)” value in data set [1] is listed as “significant elevation of NO over control levels”. In data set [2] (100 nM), the “increase in cell impedance (CI) over the native Ang-(1-7)” value was ~2 fold.
Regarding “PN-A3: Asp Arg Val Tyr Ile His Pro Ser* (glucosylated), carboxyl terminal NH2 (SEQ ID NO: 8) (DRVYIHPS; glucosylated; C-terminal amide; MOD_RES (8)..(8) Glucosylated-Ser; C-term -NH2)”, the “NO production versus control levels (relative peak fluorescence intensity)” value in data set [1] is “significant elevation of NO over control levels”. Further, the “increase in cell impedance (CI) over the native Ang-(1-7)” value in data set [2] (10 nM) and in data set [2] (100 nM) was ~2 fold each time.
In the case of `CCCCc1nc(Cl)c(CO)n1Cc1ccc(-c2ccccc2-c2nn[nH]n2)cc1` [Losartan potassium], the “pain behaviors, AT1 or AT2 antagonist administered alone” value in data set [3] was “neither Losartan potassium nor PD 123319 significantly altered pain behaviors”. Besides, in data set [3] (Losartan potassium 0.4 mg/kg i.p. 30 minutes prior to Ang-(1-7) 0.058 μg/kg, 15 minutes post-administration), the “MPE in reducing flinching” value is on record as 80.56%. Moreover, the “maximal possible efficacy (MPE) in reducing guarding” value in data set [3] (Losartan potassium 0.4 mg/kg i.p. 30 minutes prior to Ang-(1-7) 0.058 μg/kg, 30 minutes post-administration) is listed as 77.527%.
`CC[C@H](C)[C@H](NC(=O)[C@H](Cc1ccc(O)cc1)NC(=O)[C@@H](NC(=O)[C@H](CCCNC(=N)N)NC(=O)[C@@H](N)CC(=O)O)C(C)C)C(=O)N[C@@H](Cc1c[nH]cn1)C(=O)N1CCC[C@H]1C(=O)O` [Ang-(1-7), Asp-Arg-Val-Tyr-Ile-His-Pro]: the “rotarod latencies versus vehicle” value in data set [4] was “No significant differences in rotarod latencies”.
In the case of `CC[C@H](C)[C@H](NC(=O)[C@H](Cc1ccc(O)cc1)NC(=O)[C@@H](NC(=O)[C@H](CCCNC(=N)N)NC(=O)[C@@H](N)CC(=O)O)C(C)C)C(=O)N[C@@H](Cc1c[nH]cn1)C(=O)N[C@@H](COC1O[C@H](CO)[C@@H](O)[C@H](O)[C@H]1O)C(N)=O` (stereo partly drawn) [PN-A5, Ang 1-6-Ser(OGlc)-NH2] (H-DRVYIHS(X1)-NH2), in data set [5], the half-life is 1 h. Besides, the “maximum CSF concentration” value in data set [6] (10 mg/kg subcutaneous, naïve mice, microdialysis, corrected for basal CSF levels) is reported as “about 400 nM”. Also, the Cmax in data set [6] (mouse, serum, sc, 10 mg/kg) was ~3.5 µM.
On to `CC[C@H](C)[C@H](NC(=O)[C@H](Cc1ccc(O)cc1)NC(=O)[C@@H](NC(=O)[C@H](CCCNC(=N)N)NC(=O)[C@@H](N)CC(=O)O)C(C)C)C(=O)N[C@@H](Cc1c[nH]cn1)C(=O)N[C@@H](CO[C@@H]1O[C@H](CO)[C@@H](O[C@@H]2O[C@H](CO)[C@H](O)[C@H](O)[C@H]2O)[C@H](O)[C@H]1O)C(N)=O` [Ang 1-6-Ser(OLac)-NH2] (H-DRVYIHS(X2)-NH2), for which the half-life in data set [7] is 5.8 h.
As for `Cc1cc(Cn2cnc3c2C[C@@H](C(=O)O)N(C(=O)C(c2ccccc2)c2ccccc2)C3)ccc1N(C)C` [PD 123319], in data set [3], the “pain behaviors, AT1 or AT2 antagonist administered alone” value is “neither Losartan potassium nor PD 123319 significantly altered pain behaviors”. Further, the “guarding or flinching versus Ang-(1-7) alone” value in data set [3] (PD 123319 0.4 mg/kg i.p. 30 minutes prior to Ang-(1-7) 0.058 μg/kg) is recorded as “did not further increase nor decrease guarding or flinching”.

Usually half-life stands for the time needed for the level to fall by half in the phase considered. Low readings indicate rapid decline, high ones slow decline. As usually defined, the Cmax is the peak of the concentration-time curve.
